The values below come from US20260258025A1, “INHIBITORS OF TDP-43 AND TAU AGGREGATION” (Aquinnah Pharmaceuticals, inc., priority 2023, published 2026).

Entries after “also recorded” stand apart in the source; their conditions may differ.

Common to all, as to assay type: cell-based
In experiment [1] the test system is TDP-43 nuclear localization. Put plainly: TDP-43 localization analysis by immunofluorescence in MG-132 challenged iP11NA human motor neurons. The procedure: (§1) Cell culture and differentiation of iPS Cells into motor neurons. Pluripotent stem cells were grown with mTeSR Plus medium on tissue culture dishes coated with Matrigel, and maintained in 5% CO2 incubators at 37° C. Stem cells were passaged as small aggregates of cells after 1 mM EDTA treatment. […] was added to the cultures for 16-24 h after dissociation to prevent cell death. The iP11NA iPS cell line was acquired from ALSTEM. This cell line was generated from pre-made footprint-free human iPS cells with DOX inducible Ngn2 that has been stably integrated into the human AAVS1 “Safe Harbor” site, and provides a convenient means to differentiate human iPS cells into neurons rapidly and efficiently. Motor neuron differentiation was achieved using a modified 5-day strategy.
This approach relies on neural induction through small molecule inhibition of SMAD signaling, accelerated neural differentiation through forced Ngn2 expression, and motor neuron patterning through the activation of retinoic acid and Sonic Hedgehog signaling pathways. In brief, pluripotent stem cells were dissociated to single cells using accutase and plated at a density of 80,000 cells per cm^2 on Matrigel-coated culture plates with mTeSR Plus medium supplemented with ROCK inhibitor (10 μM Y-27632, ATCC). When cells reached 50% confluency, medium was changed to differentiation medium BrainPhys medium supplemented with N2-A, SM1, […]. This time point was defined as day 0 (d0) of motor neuron differentiation. Treatment with small molecules was carried out as follows: 2 μg/mL Doxycyline, 10 μM SB431542, 100 nM LDN-193189, […] and 1 μM Smoothend agonist and 10 uM Edu. […]
A dose-responsive effect was further tested for Compound 183 using quantitative imaging analysis on the CellInsight™ CX7 High Content Analysis Platform. By comparing the intensity of TDP-43 staining in the nucleus and cytoplasm of human motor neurons, we determined Compound 183 could maintain nuclear TDP-43 from 370 nM-10 μM in the proteasome challenged motor neurons (see FIG. 2).

The test system of the next experiment is TDP-43 splicing function. Put plainly: qRT-PCR of TDP-43 sentinel transcripts (STMN2, ELAVL3, PFKP) in MG-132 challenged human motor neurons. The protocol:
as §1
This approach relies on neural induction through small molecule inhibition of SMAD signaling, accelerated neural differentiation through forced Ngn2 expression, and motor neuron patterning through the activation of retinoic acid and Sonic Hedgehog signaling pathways. In brief, pluripotent stem cells were dissociated to single cells using accutase and plated at a density of 80,000 cells per cm^2 on Matrigel-coated culture plates with mTeSR Plus medium supplemented with ROCK inhibitor (10 μM Y-27632, ATCC). When cells reached 50% confluency, medium was changed to differentiation medium BrainPhys medium supplemented with N2-A, SM1, […]. This time point was defined as day 0 (d0) of motor neuron differentiation. Treatment with small molecules was carried out as follows: 2 μg/mL Doxycyline, 10 μM SB431542, 100 nM LDN-193189, […] and 1 μM Smoothend agonist and 10 uM Edu. The full list of materials and their descriptions is included below in Table 5.
Total RNA was isolated from d14 motor neurons for qRT-PCR assays using TaqMan™ Fast Advanced Cells-to-CT™ Kit according to manufacturer's instructions. 7500 neurons per well of 96-well culture were routinely used for processing. qRT-PCR was then performed using multiplex assays from IDT using PrimeTime™ Gene Expression Master Mix (IDT) on a QuantStudio6Pro system. Quantitative levels for all genes assayed were normalized using GAPDH expression. […] Primers and probes used in this study are in Table 5.
To this end, we first examined whether proteasome inhibition, which triggers TDP-43 nuclear depletion, also leads to splicing defects associated with TDP-43 loss-of function. For comparison, we also treated human motor neurons with puromycin, which recruits TDP-43 to stress granules in the cytoplasm. We chose to analyze several transcripts that have relevant connections to ALS biology including STMN26,12, PFKP19, and ELAVL320,21. We used quantitative reverse transcription-polymerase chain reaction (qRT-PCR) to validate that in MG-132-treated motor neurons these transcripts were altered like in ALS patients.
Using this method, we next obtained RNA from independent motor neuron biological replicates after proteasome inhibition and Compound 183 treatment to determined by qRT-PCR the relative abundance of these transcripts. […] A dose-responsive effect was further tested for Compound 183 using qRT-PCR in this model. […] Collectively, the data support the notion that Compound 183 promotes TDP-43 nuclear function under proteotoxic stress.
(In qPCR the cycle at which signal appears reflects the starting amount.)

The next experiment concerns insoluble TDP-43. Put plainly: Cell fractionation and immunoblot of TDP-43 in MG-132 challenged human motor neurons. The note with it: 500 nM Compound 183 with MG-132 1 μM. The procedure: Cell culture and differentiation of iPS Cells into motor neurons. Pluripotent stem cells were grown with mTeSR Plus medium on tissue culture dishes coated with Matrigel, and maintained in 5% CO2 incubators at 37° C. Stem cells were passaged as small aggregates of cells after 1 mM EDTA treatment. […] was added to the cultures for 16-24 h after dissociation to prevent cell death. The iP11NA iPS cell line was acquired from ALSTEM. This cell line was generated from pre-made footprint-free human iPS cells with DOX inducible Ngn2 that has been stably integrated into the human AAVS1 “Safe Harbor” site, and provides a convenient means to differentiate human iPS cells into neurons rapidly and efficiently. Motor neuron differentiation was achieved using a modified 5-day strategy. […]
For analysis of TDP-43 cellular distribution, d14 motor neurons were lysed with Thermo Subcellular Protein Fractionation Kit for cultured cells and processed according to the manufacturer's instructions. […] Fluorescent secondary antibodies were used for band detection and the Kaleidoscope precision plus protein ladder for size estimation. iBright FL1500 imaging system and software were used to quantitate protein band signal. […]
(In general: In western blotting, separated proteins are transferred to a membrane and probed.)

Where [2] appears, read: Compound 183 500 nM with MG-132 1 μM, relative to MG-132 control.
Where [3] appears, read: by 500 nM, MG-132 1 μM challenged motor neurons.

Take `Cc1cc(-c2ccc(C3CCN(C(C)C)CC3)cc2)sc1C(=O)N1CC[C@H](N)C1` [Compound 183, (S)-(3-aminopyrrolidin-1-yl)(5-(4-(1-isopropylpiperidin-4-yl)phenyl)-3-methylthiophen-2-yl)methanone]: in experiment [1] (500 nM Compound 183, pretreated 1 hour and during 1 μM MG-132 for 20 hours, human motor neurons), the “nuclear TDP-43 staining (immunofluorescence)” value is “preventing TDP-43 nuclear clearance; also recorded: TDP-43 staining in the nucleus was observed that was much more similar to that of unchallenged neurons”. The “maintenance of nuclear TDP-43, dose response (nuclear vs cytoplasmic TDP-43 staining intensity)” value in experiment [1] (MG-132 1 μM challenged human motor neurons, CX7 quantitative imaging, effective concentration range) is on record as “maintaining nuclear TDP-43 in a dose-dependent manner”. In addition, in the experiment with TDP-43 splicing function (setting [2]), the “cryptic splicing events of STMN2, ELAVL3 and PFKP (qRT-PCR)” value is listed as “nearly complete inhibition for all three cryptic splicing events”; the “splicing of the normal transcripts, TDP-43 splicing function (qRT-PCR)” value is reported as “increased splicing of the normal transcripts; also recorded: restoring splicing function of TDP-43”. Besides, the “restoration of normal STMN2 and ELAVL3 levels (qRT-PCR, dose response)” value in the experiment with TDP-43 splicing function (MG-132 1 μM challenged motor neurons) was “modest in its ability to restore normal STMN2 and ELAVL3 levels”. The “maintenance of TDP-43 splicing function, dose response (qRT-PCR)” value with TDP-43 splicing function (MG-132 1 μM challenged motor neurons, effective concentration range for most transcripts) was “restoring TDP-43 splicing function in dose dependent manner”. Moreover, in the experiment with TDP-43 splicing function (setting [3]), the “restoration of normal splicing of PFKP (qRT-PCR, dose response)” value is given as “fully restored normal splicing of PFKP” and the “suppression of cryptic splicing, all transcripts tested (qRT-PCR, dose response)” value is “strong suppression of cryptic splicing”. For the same compound, the “TDP-43 level in the nuclear fraction (immunoblot)” value with insoluble TDP-43 is listed as “the levels of TDP-43 in the nucleus were maintained; also recorded: restoring nuclear TDP-43 localization”.
